In patent US8389792B2, “Compositions and methods for the treatment and prevention of ulcerative colitis and colon cancer and screening methods to identify same” (Cornell University, priority 2007, dated 2013):
Entries after “also recorded” stand apart in the source; their conditions may differ.

Tests used:
[1] = system: T-bet−/−×RAG2−/− (TRUC) mice; test: Histologic colitis scoring of colons from treated TRUC mice; type: in vivo, mouse; details: for TRUC colitis (histologic colitis scores, in vivo antibiotic sensitivity): TRUC mice treated four weeks with single antibiotic in drinking water
Excerpt: For studies of the progeny of antibiotic treated animals, progeny were weaned at 21 days and examined six weeks after weaning. These animals had no exposure to antibiotics after weaning.
Colons were removed from euthanized mice and dissected free from the anus to distal to the cecum. Colonic contents were removed and colons were cleaned with phosphate buffer saline or Hanks' balanced salt solution prior to fixation in 4% PFA or 10% neutral buffered formalin (NBF) followed by routine paraffin embedding. After paraffin embedding, […] sections were cut and stained with hematoxylin and eosin or as noted.
Sections were examined and the degree of colitis was blindly scored. Each of four histologic parameters were scored as absent (0), mild (1), moderate (2), or severe (3): mononuclear cell infiltraton, polymorphonuclear cell infiltration, epithelial hyperplasia, and epithelial injury, similar to previous studies (Neurath et al., 2002b). Colons from dextran sodium sulfate treated mice were scored using the following parameters scored on a scale of 0-4: percentage of colon involved by inflammation, percentage of crypt loss, presence of lymphoid follicles, edema, erosions, and density of inflammatory cells. The scores for the individual parameters were summed to give a total severity score. […]
Mice were treated as described previously (Fagarasan, S., et al. (2002). Science 298, 1424-1427; Rakoff-Nahoum, S., et al. (2004). Cell 118, 229-241). Alterations are as noted: in brief, animals were provided ampicillin (1 g/L; Roche), vancomycin (1 gm/L; Henry Schein, Inc. (Hospira, Inc.)), neomycin sulfate (1 g/L; Sigma (Teva Pharmaceuticals)), and metronidazole (1 g/L; Sigma) dissolved in their autoclaved drinking water and their fluid intake was monitored. […]
Mice were treated with the following antibiotics dissolved in their autoclaved drinking water as indicated: ampicillin (1 g/L; Roche), vancomycin (500 mg/L; Sigma), neomycin sulfate (1 g/L; Sigma), metronidazole (1 g/L; Sigma, solubilized with 15 ml of 0.1N acetic acid/L), and gentamicin (2 g/L; Cell Gro); and fluid intake monitored. […]

[2] = system: Proteus mirabilis; test: Quantitative fecal culture of Gram-negative aerobes on MacConkey's medium; type: in vivo; details: for fecal levels of P. mirabilis after antibiotic: 4-week old TRUC mice, feces cultured 1d before and 1d after antibiotic, limit of detection 4.4 log10 CFU/g
Description: (§1) Individual mice were placed in autoclaved plastic cages. Fecal pellets were transferred immediately upon expulsion into capped microfuge tubes. 4-6 pellets were collected per mouse per time point. All Rag2^−/− mice in FIG. 2F were sampled twice over a 3d period for each weekly time point. Pellets were resuspended in sterile PBS and 10-fold serial dilutions were generated, plated on MacConkey's medium, and incubated in ambient air at 37° C. overnight. Biochemical assays with the API-20E panel (bioMerieux) confirmed that colony morphology correlated with Klebsiella pneumoniae, Proteus mirabilis, or E. coli: therefore, these organisms were subsequently identified based on their colony morphotypes.
(§2) The lower limit of detection for these studies was 10^4.4 cfu/gram fecal dry weight. A minimum of 30 colonies or a maximum of 300 colonies was counted at a given dilution and the serial dilution had to appropriately reflect the colony counts for the quantitative counts to pass our quality control standards.
(§3) Mice were treated with the following antibiotics dissolved in their autoclaved drinking water as indicated: ampicillin (1 g/L; Roche), vancomycin (500 mg/L; Sigma), neomycin sulfate (1 g/L; Sigma), metronidazole (1 g/L; Sigma, solubilized with 15 ml of 0.1N acetic acid/L), and gentamicin (2 g/L; Cell Gro); and fluid intake monitored.
(§4) Dextran sulfate sodium (M.W. 40-50,000; USB Cat# 14489) was dissolved in drinking water at a final concentration of 4% (w/v) and provided for 7d.
(§5) anti-TNF-α (clone TN3-19.12), a hamster anti-mouse TNF-α neutralizing IgGl antibody and control Ab (hamster anti-GST IgGl) were purchased from Leinco Technologies. Mice were injected with these reagents (15 mg/kg) on a weekly basis for four weeks (Garrett et al., 2007).
(§6) Peripheral lymph nodes were harvested and cell suspensions were generated as previously described. Fluorescence activated cell sorted C114^+CD62L^h,CD25^+ cells were collected and resuspended in PBS. 75,000 cells were injected per mouse. An equivalent amount of PBS was injected in the control group. 10 mice were injected with T-regulatory cells and nine mice with PBS. All mice were 4 weeks of age at the time of injection (Garrett et al., 2007). This experiment was stopped when the mice were 12 weeks old (as opposed to 14 weeks of age in the TNF-a blockade experiment), because two mice in the control group became quite moribund from their colitis, and euthanasia was indicated as per our animal protocol.

[3] = system: Klebsiella pneumoniae; test: as above; type: in vivo; details: for fecal levels of K. pneumoniae after antibiotic: 4-week old TRUC mice, feces cultured 1d before and 1d after antibiotic, limit of detection 4.4 log10 CFU/g
Description: as §1, §2, §3, §4, §5, §6

[4] = system: Proteus mirabilis; test: TNF-α bacterial co-culture (growth kinetics); type: cell-based; details: in vitro mono-culture, 6 h, colony counts at 2 h intervals
Description: (§7) TNF-a (final concentration 100u,g/mL culture medium), or PBS alone, was added to cultures of the designated microbes and bacterial concentrations (efu/ml) were followed during a 6 h incubation (37° C. with agitation in ambient air) at 2 h intervals. Bacteria were cultured in Luria Broth and plated on MacConkey's medium.

[5] = system: Klebsiella pneumoniae; test: TNF-α bacterial co-culture (growth kinetics); type: cell-based; details: in vitro mono-culture, 6 h, colony counts at 2 h intervals
Description: as §7

[6] = 8 week-old WT and Rag2−/− mice, 4% in drinking water one week, samples before and 1d after

Cc1ncc([N+](=O)[O-])n1CCO [metronidazole]
TRUC colitis (histologic scores) ([1]; six week old TRUC mice, antibiotics 1 g/L each in drinking water for six weeks): cured the colitis
fecal levels of P. mirabilis after antibiotic [2]: below our limit of detection
fecal levels of K. pneumoniae after antibiotic [3]: below our limit of detection

CN[C@H](CC(C)C)C(=O)N[C@H]1C(=O)N[C@@H](CC(N)=O)C(=O)N[C@H]2C(=O)N[C@H]3C(=O)N[C@H](C(=O)N[C@H](C(=O)O)c4cc(O)cc(O)c4-c4cc3ccc4O)[C@H](O)c3ccc(c(Cl)c3)Oc3cc2cc(c3O[C@@H]2O[C@H](CO)[C@@H](O)[C@H](O)[C@H]2O[C@H]2C[C@](C)(N)[C@H](O)[C@H](C)O2)Oc2ccc(cc2Cl)[C@H]1O [vancomycin]
TRUC colitis (histologic colitis scores, in vivo antibiotic sensitivity) [1]: does not; also recorded: neither abolished colitis

Dextran sulfate sodium
culturable P. mirabilis in fecal microbiota after dextran sulfate sodium [2, 6]: did not detect
culturable K. pneumoniae in fecal microbiota after dextran sulfate sodium [3, 6]: did not detect

TNF-a
growth kinetics of P. mirabilis in vitro [4]: did not affect the growth kinetics
growth kinetics of K. pneumoniae in vitro [5]: did not affect the growth kinetics

gentamicin
TRUC colitis (histologic colitis scores, in vivo antibiotic sensitivity) [1]: able to ameliorate and cure TRUC
fecal levels of P. mirabilis after antibiotic [2]: below our limit of detection
fecal levels of K. pneumoniae after antibiotic [3]: below our limit of detection
